# According to US11584733B2, “Selective histone deacetylase inhibitors for the treatment of human disease” (Shuttle Pharmaceuticals, Inc., priority 2017, dated 2023):
# Experiments:
# [1] = target: Human recombinant HDAC1 (Homo sapiens, UniProt Q13547); assay: HDAC isomer assay, Fluor-de-Lys, HDAC1; type: biochemical
# Procedure: (§1) The HDAC isomer (HDAC1, 3, and 6) assays were performed as follows:
# (§2) Materials: Human recombinant HDAC isomer (HDAC1, HDAC3, and HDAC6); Fluor-de-Lys HDAC substrates; 360 nm excitation 460 nm emission Plate Reader; Disposable pipettes; Pipet-aid; Pipette tips; Micro-pipetter; DMSO; Sterile micro-tubes and conical tubes; and Micro-centrifuge.
# (§3) Test compounds and control preparation: All test compounds' stock solutions were made in 100% DMSO. Test compound dilutions were made in HDAC Assay buffer with a final concentration of DMSO less than or equal to 1%. Vehicle control was HDAC Assay buffer with 1% DMSO.
# (§4) The reagents for the assay were prepared as follows:
# (§5) 1. All kit components were defrosted and these, and all dilutions described below, were kept on ice until use. All undiluted kit components are stable for several hours on ice.
# (§6) 2. A sufficient amount of HDAC source diluted in Assay Buffer (BML-KI143) was prepared to provide for the assays that were performed (# of wells×15 μl). A 30-fold dilution of the HeLa Extract means that 15p L contains 0.5 μl of the undiluted Extract, an appropriate amount to use per well.
# (§7) 3. Dilution(s) of SAHA and/or Test Inhibitors were prepared in Assay Buffer (BML-KI143). […]
# (§8) 6. Samples were read in a microtiter-plate reading fluorimeter capable of excitation at a wavelength in the range 350-380 nm and detection of emitted light in the range 440-460 nm.
# [2] = target: Human recombinant HDAC3 (Homo sapiens, UniProt O15379); assay: HDAC isomer assay, Fluor-de-Lys, HDAC3; type: biochemical
# Procedure: as §1, §2, §3, §4, §5, §6, §7, §8
# [3] = system: MCF-7 breast cancer cells; assay: Cell Proliferation and Cytotoxicity Assay (CCK-8); type: cell-based; settings: FIG. 15
# Source text: Cell Counting Kit-8 (CCK-8) (Dojindo) was used to determine the cytotoxicity of cells. CCK-8 assay kit uses a water-soluble WST-8 tetrazolium salt. This tetrazolium salt produces a water-soluble formazan dye upon reduction in the presence of an electron mediator (dehydrogenase). When WST-8 is reduced by dehydrogenases in living cells an orange colored product (formazan) is produced that can be detected in a 96-well plate format. The amount of the formazan dye generated by dehydrogenases is directly proportional to the number of living cells.
# For this assay the following materials were required:
# 1. Plate reader (450 nm filter);
# 5. Tissue Culture Media; and
# 6. Actively growing cells (75-80% confluency).
# The following dilutions with cell media were made prior to performance of an assay: Test compound solutions were made in a range from nano-molar to micro-molar with a final DMSO concentration not exceeding 0.1% and a total volume (e.g., 300 ul) necessary to perform duplicates of 100 μl doses.
# A Cell Proliferation and Cytotoxicity Assay was performed as follows:
# 1. Dispense 100 μl of cell suspension (5000 cells/well) in a 96-well plate equal to the number of treatments plus controls done in duplicate;
# 2. Allow seeded cells to plate for 24 hours in a humidified incubator (at 37° C., 5% CO2);
# 3. […]
# 7. Measure the absorbance at 450 nm using a micro-plate reader; and […]
# Chain of Human recombinant HDAC3 (O15379 whole entry): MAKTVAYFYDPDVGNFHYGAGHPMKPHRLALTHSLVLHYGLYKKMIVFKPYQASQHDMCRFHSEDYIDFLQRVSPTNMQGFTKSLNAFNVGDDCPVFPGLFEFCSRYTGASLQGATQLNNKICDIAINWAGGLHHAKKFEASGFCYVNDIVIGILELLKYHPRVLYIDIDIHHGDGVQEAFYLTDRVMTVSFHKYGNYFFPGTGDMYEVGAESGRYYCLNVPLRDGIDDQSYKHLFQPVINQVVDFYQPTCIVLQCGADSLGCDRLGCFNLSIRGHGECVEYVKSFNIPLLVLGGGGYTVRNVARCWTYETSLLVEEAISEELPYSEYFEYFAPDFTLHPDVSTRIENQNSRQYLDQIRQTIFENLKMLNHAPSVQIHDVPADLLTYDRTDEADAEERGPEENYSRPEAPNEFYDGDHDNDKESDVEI
# Chain of Human recombinant HDAC3 (Q9Y618 395-489 partner limits assumed): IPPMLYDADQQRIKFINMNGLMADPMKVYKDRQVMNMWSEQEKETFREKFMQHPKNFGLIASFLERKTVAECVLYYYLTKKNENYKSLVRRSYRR
# Chain of Human recombinant HDAC1 (Q13547 whole entry): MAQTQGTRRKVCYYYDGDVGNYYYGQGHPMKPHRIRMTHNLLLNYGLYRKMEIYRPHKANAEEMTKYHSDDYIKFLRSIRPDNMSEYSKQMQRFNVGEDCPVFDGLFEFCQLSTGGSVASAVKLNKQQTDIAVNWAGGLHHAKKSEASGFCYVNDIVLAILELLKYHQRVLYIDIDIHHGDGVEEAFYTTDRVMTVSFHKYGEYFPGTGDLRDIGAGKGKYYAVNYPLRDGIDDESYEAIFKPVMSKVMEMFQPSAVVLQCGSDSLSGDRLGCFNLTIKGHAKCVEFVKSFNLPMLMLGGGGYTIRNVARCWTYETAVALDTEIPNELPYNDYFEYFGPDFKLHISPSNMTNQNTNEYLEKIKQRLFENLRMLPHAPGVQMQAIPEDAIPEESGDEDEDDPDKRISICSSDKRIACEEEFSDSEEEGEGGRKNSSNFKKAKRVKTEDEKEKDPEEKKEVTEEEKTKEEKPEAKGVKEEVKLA
"EC50 ([1]; Example 4, FIG. 9)","IC50 ([1]; Example 6, FIG. 18, 2 mg/mL formulation in 5% DMSO/40% PEG 400/55% PBS, read-out: IC50 against HDAC1 protein)","EC50 ([2]; Example 4, FIG. 10)","IC50 ([2]; Example 6, FIG. 18, 2 mg/mL formulation in 5% DMSO/40% PEG 400/55% PBS, read-out: IC50 against HDAC3 protein)",SMILES,"EC50 ([3]; Homo sapiens, MCF7, 48 hours incubation, read-out: EC50 against MCF-7 breast cancer cells)",MCF-7 cells killed ([3]; at about 10 μM)
1.54 µM,1.54 µM,3.07 µM,3.07 µM,"O=C(CCCCCCC(=O)Nc1cccc2c1CN(C1CCC(=O)NC1=O)C2=O)NO (stereo not drawn) [SP-2-93, N^1-(2-(2,6-dioxopiperidin-3-yl)-1-oxoisoindolin-4-yl)-N^8-hydroxyoctanediamide]",,
,,,,"O=C(CCCCCCC(=O)NC1CCC(=O)NC1=O)NO (stereo not drawn) [SP-2-59, N^1-(2,6-dioxopiperidin-3-yl)-N^8-hydroxyoctanediamide]",5.03 µM,78%
